Patent US20210330741A1, “POLYPEPTIDE THERAPEUTICS AND USES THEREOF” (BOARD OF REGENTS, THE UNIVERSITY OF TEXAS SYSTEM, priority 2015, published 2021)
Where no end group is shown, it is not given here.

Type: physicochemical
Method: Formulation preparation—Lyophilized cake of the CSP 7 mer was prepared using lyophilization. Five hundred μg/mL of the CSP 7 mer solution was prepared as follows: the peptide powder was dissolved in DPBS with minimal volume of ammonium hydroxide (pH 7-8) and 1.5% w/v of mannitol was added in to the solution. The solution was sterile filtered using 0.2 μm SFCA sterile syringe filter (Corning Inc., Corning, N.Y.). Effect of filtration was also tested. One milliliter of the filtrate was filled into a borosilicate glass vial and lyophilized using a VirTis Advantage Lyophilizer (VirTis Company Inc., Gardiner, N.Y.). Lyophilization cycle parameters were set as outlined in Table 2. Primary drying time was varied by number of samples. Nebulization study of the CSP 7 mer peptide—Lyophilized peptide was reconstituted with sterile water for injection (500 μg/mL). […] The condensate of each sample was collected in a polypropylene tube and kept at 5° C. until analyzed. The amount of peptide in each sample was analyzed using high performance liquid chromatography (HPLC) and the degradation products was detected using liquid chromatography mass spectroscopy (LC/MS). Chromatographic conditions—Samples were analyzed using a Dionex 3000 high performance liquid chromatography (HPLC) system (Thermo Fisher Scientific, Fair Lawn, N.J.) with a wavelength of 220 nm. […]

FTTFTVT [CSP-7, FTTFTVT]
percent recovery of the peptide (chemical assay, % of peptide remaining): did not have an influence
